Where a name gives a salt, the structure may show the parent alone.
Legend:
[1] = Stability of conjugates in Simulated Gastric Fluid (SGF); format: in vitro ADME; conditions: SGF pH 1.6 with pepsin, 37° C., 1 μM compound
Procedure, shortened: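 Compound at 1 μM (from 1 mM DMSO stock) in pH 1.6 NaCl medium with FaSSIF powder and 0.1 mg/mL pepsin, mixed at 37° C. Aliquots quenched with equal volume acetonitrile at T0 and regular intervals; LC/MS gives degradation rate.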

[2] = Stability of conjugates in Simulated Intestinal Fluid (SIF); format: in vitro ADME; conditions: SIF pH 6.7 with pancreatin, 37° C., 1 μM compound
Procedure, shortened: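 Compounds at 1 μM in fresh simulated intestinal fluid: FaSSIF powder in pH 6.7 phosphate buffer with pancreatin. Agitated at 37 °C; aliquots taken at T0 and regular intervals, quenched with 1 volume acetonitrile. Degradation rates determined by LC/MS.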

[3] = tested on: experimental autoimmune encephalomyelitis (EAE); experiment: In Vivo EAE Model of Multiple Sclerosis; set-up: species or system C57BL/6J mice; conditions: Study 2, oral, amount approximately equimolar to 100 mg/kg DMF, 28 days
Method: For experimental autoimmune encephalomyelitis (EAE) study, 8- to 11-week-old C57BL/6J mice were anesthetized and subcutaneously injected with […] and […]. Pertussis toxin (200 ng/mouse) was applied i.p. on days 0. Daily clinical evaluation was performed via a 5-point scale, and the clinical progression was observed over 28 days (FIG. 2A). […] At the end of the study, flow cytometry analysis was performed on the spleen (n=8 per group). […] Statistical analysis was performed with GraphPad Prism (GraphPad Software). Unpaired t test was used to assess significance between the control (Vehicle) and each treatment group. For experimental autoimmune encephalomyelitis (EAE) studies, 8- to 11-week old C57BL/6J mice were anesthetized and subcutaneously injected with […] and […]. Pertussis toxin (200 ng/mouse) was applied intraperitoneally on day 0. Daily clinical evaluation as performed using a 5-point scale and the clinical progression was observed over 28 days (FIGS. 2C and 2D).

[4] = In vitro Colonic Material Stability Assay; format: in vitro ADME; conditions: colonic material slurry in YCFAC media, anaerobic, 1 or 10 μM
Method: Assay 3. In vitro Colonic Material Stability Assay. This assay was used to assess the stability of a conjugate in a large intestine. All experiments were performed in an anaerobic chamber containing 90% nitrogen, 5% hydrogen and 5% carbon dioxide. Colonic material was resuspended as a slurry (15% w/v final concentration) in pre-reduced, anaerobically sterilized dilution blanks (Anaerobe Systems AS-908). The colonic material was then inoculated into 96 well plates containing YCFAC media (Anaerobe Systems AS-680) or other suitable media (6.7 μL slurry into 1 mL total media). Compounds or groups of compounds were added to each individual well to reach a final analyte concentration of 1 or 10 μM, and the material was mixed by pipetting. Sample was removed after set timepoints (0, 120, 240, 480, 1440, 2880 minutes after initiation of the assay), quenched with acetonitrile containing internal standard, and analyzed by LC/MS.

IL-8 = experiment: Neutrophil Chemokine Production Assay: IL-8; format: cell-based; conditions: human neutrophils, 12 h
Method: (§1) A volume 25 mL of human blood was layered over 15 mL of Histopaque®-1077 and centrifuged at 500 g, R^T, for 30 min with no break applied to the centrifuge. The PBMC band and Histopaque®-1077 layer were removed leaving behind the bottom red layer which was mixed with 40 mL of 1× red blood cell (RBC) lysis buffer (Sigma-Aldrich) was and split into two 50 mL tubes. The volume for both fractions was brought to 50 mL with RBC lysis buffer, mixed by inversion, and then incubated at RT for 10 min. Solutions were centrifuged at 250 g, for 10 min at RT and the supernatant liquids removed. The reddish pellets were re-suspended in 1 mL of RBC lysis buffer and combined. The cell suspension was incubated for 5 min at RT in RBC lysis buffer. After incubation 45 mL of Hanks Balanced Salt Solution with no calcium, magnesium or phenol red (HBSS—) was added, the cell suspension was spun (250 g for 10 min at RT), and supernatant liquids were removed. The white pellet was re-suspended in 1 mL of HBSS—, and cell counts were determined. The neutrophil cell suspension was brought to a concentration of 1.11e6 cells/mL in RPMI complete (Sigma-Aldrich), and 180 μL of cell suspension was transferred to all wells within a sterile 96-well tissue culture treated plate resulting in 2.0×10^5 cells/well. […] After incubation, 10 μL of 2 μg/mL LPS solution in RPMI complete was added to each well except for control wells, which received an additional 10 μL of media. Cells were incubated for 12 h (37° C., 5% CO2), after which plates were centrifuged at 250 g, RT, for 5 min and supernatant liquids were obtained and stored at −80° C. until analyzed via Luminex® Multiplex Assay for various chemokines and cytokines. Three data points were acquired from two different blood donors and averaged.

MIP-1α = experiment: Neutrophil Chemokine Production Assay: MIP-1α; format: cell-based; conditions: human neutrophils, 12 h
Method: as §1

MIP-1β = experiment: Neutrophil Chemokine Production Assay: MIP-1β; format: cell-based; conditions: human neutrophils, 12 h
Method: as §1

naïve CD4+ T cells = experiment: Human Regulatory T Cell Differentiation Assay; format: cell-based; conditions: 6 days; for Cell viability % DMSO: viability dye
Method: Peripheral blood mononuclear cells (PBMCs) from whole blood donated by health volunteers were separated by Ficoll-Paque gradient centrifugation and naïve CD4^+ T cells were subsequently isolated using magnet beads (EasySep™ Human Naïve CD4^+ T Cell Isolation Kit, Cambridge, Mass.). For regulatory T cell (Treg) differentiation assay, naïve CD4^+ T cells were cultured (1-10×10^4 cells) in CTS OpTmizer medium for 6 days and stimulated with 5 ng/ml TGF-β, 100 U/ml IL-2, and ImmunoCult™ Human […] T Cell Activator; Stemcell #10990) with/without our Compounds. Cell viability was determined using a viability dye (eBioscience Fixable Viability Dye eFluor 780: ThermoFisher 65-0865-14) at 1:500 dilution. The cells were gated for Treg, defined as Live, CD11c^−, CD14^−, CD19^−, CD8^−, CD4^+, CD3^+, CD25^+, FOXP3^+. Percent (%) Tregs were calculated as percentage of CD4^+, CD25^+, FOXP3^+ cells over total CD4^+ T cells. Statistical analysis was performed with GraphPad Prism Software Using One-Way ANOVA.

TNFα = experiment: Cytokine Release from Human PBMCs: TNFα; format: cell-based; conditions: LPS, 24 hours, Concentration 100 μM
Method: (§2) Human donor blood (8 mL) was collected in sodium citrate CPT tubes and centrifuged at 1,600×g for 20 minutes at room temperature. Buffy coat containing PBMCs was collected and transferred to a 50 mL conical tube containing 30 mL of RPMI-1640 medium at room temperature (supplemented with penicillin-streptomycin). PBMCs samples were centrifuged at 400×g for 10 minutes at 10° C. The pelleted PBMCs were washed twice in 10 ml of RPMI-1640 medium (supplemented with penicillin-streptomycin), then resuspended in RPMI-1640 medium (supplemented with penicillin-streptomycin, fetal bovine serum, and L-Glutamine). PBMCs were filtered through a 70 micron mesh to remove any cellular debris. […] PBMCs in a 96-well plate were rested for 30 minutes in a 37° C., 5% CO2 incubator, then subsequently treated with 10 μI of indicated compound. After 2 hours 10 μL of LPS (0111:64) 1 mg/mL was added to test wells. After 24 hours of incubation at 37° C., 5% CO2, 100 μL of cell supernatant was collected and transferred to a 96-well plate (non-tissue treated, flat bottom). The plate was centrifuged at 350×g for 5 minutes at room temperature, and then the clear supernatant transferred to a new 96-well plate (non-tissue treated, flat bottom). The remaining cells were tested for viability using CellTiter-Glo® Luminescent Cell Viability Assay (Promega). The supernatant was analyzed for TNFα, IL-6 and IL-1β (kit […] Systems), using Luminex Immunoassay Technology (MAGPIX System).

IL-6 = experiment: Cytokine Release from Human PBMCs: IL-6; format: cell-based; conditions: LPS, 24 hours, Concentration 100 μM
Method: as §2

IL-1β = experiment: Cytokine Release from Human PBMCs: IL-1β; format: cell-based; conditions: LPS, 24 hours, Concentration 100 μM
Method: as §2

Caco-2 colonocytes = experiment: Human Caco-2 Barrier Integrity Assay, Study 1; format: cell-based; conditions: Caco-2, + cytokines (TNFα, IFNγ, IL-1β), 48 hours
Method: Caco-2 colonocytes were maintained at 37° C. and 5% CO2 in Dulbecco's Modified Eagle Medium (DMEM) and supplemented with 10% FBS, 1% NEAA, 1% penicillin-streptomycin. At 70-80% confluency, cells were trypsinized and seeded in 0.4 cm^2 transwell collagen I coated membranes with supplemented DMEM in both apical and basolateral compartments. […] After 48 hours, TEER readings were taken again and viability was measured by CellTiter 96® AQueous One Solution Cell Proliferation Assay (Promega).

CCCC(=O)O[C@H]1[C@H](OC(=O)/C=C/C(=O)OC)OC[C@@H](OC(=O)CCC)[C@H]1OC(=O)CCC [Compound 24, Methyl ((2S,3R,4R,5R)-3,4,5-tris(butyryloxy)tetrahydro-2H-pyran-2-yl) fumarate]
Assay 1 (SGF) (% Remaining @ 1 hour) [1]: C (C: >75% of the tested compound remaining)
Assay 2 (SIF) (% @ Remaining 4 hours) [2]: A (A: <25% of the tested compound remaining)
EAE score (5-point scale) compared to control (vehicle only) [3]: lower EAE scores

CCC(=O)OC[C@H]1O[C@@H](OC(=O)/C=C/C(=O)OC)[C@H](OC(=O)CC)[C@@H](OC(=O)CC)[C@@H]1OC(=O)CC [Compound 3, Methyl ((2S,3R,4S,5R,6R)-3,4,5-tris(propionyloxy)-6-((propionyloxy)methyl)tetrahydro-2H-pyran-2-yl) fumarate]
Assay 1 (SGF) (% Remaining @ 1 hour) [1]: C (C: >75% of the tested compound remaining)
Assay 2 (SIF) (% @ Remaining 4 hours) [2]: B (B: 25-75% of the tested compound remaining)
Assay 3 (% Remaining at 24 h) [4]: C (C: >75% of the tested compound remaining)
EAE score (5-point scale) compared to control (vehicle only) [3]: lower EAE scores
EAE score (5-point scale) compared to mice treated with dimethyl fumarate [3]: lower or similar EAE scores

O=C[C@H](O)[C@@H](O)[C@@H](O)CO [L-arabinose]
% IL-8 (Vehicle + LPS = 100%) (IL-8; Conc. 500.0 μM): − (− = >90% Vehicle)
% IL-8 (Vehicle + LPS = 100%) (IL-8; Conc. 1000.0 μM): − (− = >90% Vehicle)
% MIP-1α (Vehicle + LPS = 100%) (MIP-1α; Conc. 500.0 μM): − (− = >90% Vehicle)
% MIP-1α (Vehicle + LPS = 100%) (MIP-1α; Conc. 1000.0 μM): − (− = >90% Vehicle)
% MIP-1β (DMSO + LPS = 100%) (MIP-1β; Conc. 500.0 μM): − (− = >90% Vehicle)
% MIP-1β (DMSO + LPS = 100%) (MIP-1β; Conc. 1000.0 μM): − (− = >90% Vehicle)
Cell viability % DMSO (naïve CD4+ T cells; 0.5 mM): = (90% > <110%: =)
Cell viability % DMSO (naïve CD4+ T cells; 1 mM): = (90% > <110%: =)
activity at 500 µM (naïve CD4+ T cells; Homo sapiens, 144 h, TGF-β, IL-2, 0.5 mM, read-out: Treg induction % DMSO): 90 to 110%
activity at 1000 µM (naïve CD4+ T cells; Homo sapiens, 144 h, TGF-β, IL-2, 1 mM, read-out: Treg induction % DMSO): 90 to 110%
TNFα % of DMSO control (TNFα): + ((+) 50% > <90% DMSO)
IL6 % DMSO control (IL-6): + ((+) 50% > <90% DMSO)
IL1β % DMSO control (IL-1β): = ((=) 90% > <110% DMSO)

CCCC(=O)O[C@@H]1[C@@H](OC(=O)CCC)[C@H](C)O[C@@H](OC(=O)/C=C/C(=O)OC)[C@@H]1OC(=O)CCC [Compound 15, Methyl ((2S,3R,4R,5S,6S)-3,4,5-tris(butyryloxy)-6-methyltetrahydro-2H-pyran-2-yl) fumarate]
Assay 1 (SGF) (% Remaining @ 1 hour) [1]: B (B: 25-75% of the tested compound remaining)
Assay 2 (SIF) (% @ Remaining 4 hours) [2]: A (A: <25% of the tested compound remaining)
Assay 3 (% Remaining at 24 h) [4]: C (C: >75% of the tested compound remaining)
EAE score (5-point scale) compared to control (vehicle only) [3]: lower EAE scores

CCC(=O)O[C@H]1[C@H](OC(=O)CC)[C@H](OC(=O)/C=C/C(=O)OC)O[C@@H](C)[C@H]1OC(=O)CC [Compound 1, Methyl ((2S,3S,4R,5R,6S)-6-methyl-3,4,5-tris(propionyloxy)tetrahydro-2H-pyran-2-yl) fumarate]
Assay 1 (SGF) (% Remaining @ 1 hour) [1]: C (C: >75% of the tested compound remaining)
Assay 3 (% Remaining at 24 h) [4]: C (C: >75% of the tested compound remaining)
EAE score (5-point scale) compared to control (vehicle only) [3]: lower EAE scores

CC(O)CC(=O)O (stereo not drawn) [β-hydroxybutyrate]
% Change in TEER from DMSO (Caco-2 colonocytes; 200 μM): + (125% > <150%: +)
% Change in TEER from DMSO (Caco-2 colonocytes; 2 mM): − (<125%: −)
TNFα % of DMSO control (TNFα): − ((−) >110% DMSO)
IL6 % DMSO control (IL-6): = ((=) 90% > <110% DMSO)
IL1β % DMSO control (IL-1β): − ((−) >110% DMSO)

CCC(=O)O[C@@H]1[C@@H](OC(=O)CC)[C@H](OC(=O)/C=C/C(=O)OC)OC[C@H]1OC(=O)CC [Compound 20, Methyl ((2S,3R,4S,5R)-3,4,5-tris(propionyloxy)tetrahydro-2H-pyran-2-yl) fumarate]
Assay 1 (SGF) (% Remaining @ 1 hour) [1]: C (C: >75% of the tested compound remaining)
Assay 2 (SIF) (% @ Remaining 4 hours) [2]: A (A: <25% of the tested compound remaining)
Assay 3 (% Remaining at 24 h) [4]: C (C: >75% of the tested compound remaining)
EAE score (5-point scale) compared to control (vehicle only) [3]: lower EAE scores

— US20210299079A1, “MONOMETHYL FUMARATE-CARRIER CONJUGATES AND METHODS OF THEIR USE” (Flagship Pioneering Innovations V, Inc., priority 2018, published 2021)
